pKi: −log10 of the molar value. Calls of active or inactive are those of the source. The calls are words filed in the database; no cut-off is given here.
Tests used:
Macrophage [1] = assay: Antiinflammatory activity in C57BL/6J mouse macrophages assessed as inhibition of LPS-stimulated TNFalpha release pretreated for 48 hrs before LPS challenge measured after 24 hrs by ELISA; format: functional, cell-based
[2] = biological target: T1, Fatty acid-binding protein, adipocyte (Homo sapiens, UniProt P15090); assay: Displacement of […] 1-anilinonaphthalene 8-sulfonic acid from AFABP expressed in Escherichia coli BL21 (DE3) by fluorescence spectrophotometry
Target sequence in this assay (P15090 whole entry): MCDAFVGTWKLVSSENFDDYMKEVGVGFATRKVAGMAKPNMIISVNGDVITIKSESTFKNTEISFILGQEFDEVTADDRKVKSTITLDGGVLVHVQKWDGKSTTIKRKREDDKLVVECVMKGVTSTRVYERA

[3] = biological target: T2, Peroxisome proliferator-activated receptor gamma (Mus musculus) (UniProt P37238); assay: Binding affinity to PPARgamma in C57BL/6J mouse macrophages assessed as increase in Cpt1alpha mRNA level at 500 nM after 48 hrs by real-time PCR analysis
T2 sequence (whole entry): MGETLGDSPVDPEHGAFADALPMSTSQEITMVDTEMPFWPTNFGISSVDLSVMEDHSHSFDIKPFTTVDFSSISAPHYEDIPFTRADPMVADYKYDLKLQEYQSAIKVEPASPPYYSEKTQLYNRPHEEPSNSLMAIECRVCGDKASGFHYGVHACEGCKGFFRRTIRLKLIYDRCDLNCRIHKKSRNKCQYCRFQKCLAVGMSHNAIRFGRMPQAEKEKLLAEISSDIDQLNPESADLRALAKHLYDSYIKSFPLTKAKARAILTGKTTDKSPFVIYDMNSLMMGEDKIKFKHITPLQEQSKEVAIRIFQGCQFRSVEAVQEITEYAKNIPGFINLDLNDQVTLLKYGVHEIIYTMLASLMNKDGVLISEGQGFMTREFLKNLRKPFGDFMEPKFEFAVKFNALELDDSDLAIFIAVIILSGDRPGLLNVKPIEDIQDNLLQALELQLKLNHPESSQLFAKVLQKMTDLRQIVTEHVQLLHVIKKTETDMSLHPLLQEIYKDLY

[4] = biological target: T1, Fatty acid-binding protein, adipocyte; assay: Binding affinity to AFABP in forskolin-stimulated […] C8PA cells assessed as blocked of protein interaction with hormone sensitive lipase at 10 uM after 2 to 4 hrs by FRET analysis; format: cell-based
Target sequence in this assay (P15090 2-132 limits assumed): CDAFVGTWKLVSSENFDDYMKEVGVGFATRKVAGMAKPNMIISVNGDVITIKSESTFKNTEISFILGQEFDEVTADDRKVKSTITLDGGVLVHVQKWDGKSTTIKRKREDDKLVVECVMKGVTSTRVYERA

Macrophage [5] = assay: Antiinflammatory activity in C57BL/6J mouse macrophages assessed as inhibition of LPS-stimulated MCP1 release pretreated for 48 hrs before LPS challenge measured after 24 hrs by ELISA; format: functional, cell-based
[6] = biological target: T3, Peroxisome proliferator-activated receptor gamma (Homo sapiens) (UniProt P37231); assay: Activation of PPARgamma expressed in african green monkey CV1 cells at 0.5 to 25 uM after 24 hrs by luciferase reporter gene assay; format: cell-based; conditions: CV-1
T3 sequence (whole entry): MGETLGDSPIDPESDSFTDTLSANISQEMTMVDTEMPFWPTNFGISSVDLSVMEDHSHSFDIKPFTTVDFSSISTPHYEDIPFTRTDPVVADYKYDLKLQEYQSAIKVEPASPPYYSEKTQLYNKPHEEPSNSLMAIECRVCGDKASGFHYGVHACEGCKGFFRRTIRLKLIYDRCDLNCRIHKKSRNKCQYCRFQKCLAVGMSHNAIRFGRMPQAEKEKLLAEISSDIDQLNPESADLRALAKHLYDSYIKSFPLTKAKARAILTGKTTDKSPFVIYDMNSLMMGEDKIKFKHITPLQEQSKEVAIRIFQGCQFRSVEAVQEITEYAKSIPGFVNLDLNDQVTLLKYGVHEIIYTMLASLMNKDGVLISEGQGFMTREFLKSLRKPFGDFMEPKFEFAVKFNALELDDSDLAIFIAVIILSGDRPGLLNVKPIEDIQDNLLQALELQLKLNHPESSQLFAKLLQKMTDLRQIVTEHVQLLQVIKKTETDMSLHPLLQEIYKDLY

[7] = biological target: T1, Fatty acid-binding protein, adipocyte; assay: Binding affinity to AFABP in […] C8PA cells assessed as blocked of protein interaction with hormone sensitive lipase at 1 uM after 2 to 4 hrs by FRET analysis; format: cell-based
Target sequence in this assay (P15090 2-132 limits assumed): as the sequence (P15090 2-132 limits assumed) above

[8] = biological target: Fatty acid-binding protein 5 (Homo sapiens, UniProt Q01469); assay: Displacement of […] 1-anilinonaphthalene 8-sulfonic acid from EFABP expressed in Escherichia coli BL21 (DE3) by fluorescence spectrophotometry
[9] = biological target: T1, Fatty acid-binding protein, adipocyte; assay: Binding affinity to AFABP in forskolin-stimulated […] C8PA cells assessed as blocked of protein interaction with hormone sensitive lipase at 1 uM after 2 to 4 hrs by FRET analysis; format: cell-based
Target sequence in this assay (P15090 2-132 limits assumed): as the sequence (P15090 2-132 limits assumed) above

Macrophage [10] = assay: Antiinflammatory activity in C57BL/6J mouse macrophages assessed as inhibition of LPS-stimulated IL6 release pretreated for 48 hrs before LPS challenge measured after 24 hrs by ELISA; format: functional, cell-based
[11] = biological target: T4, Fatty acid-binding protein, intestinal (Homo sapiens, UniProt P12104); assay: Displacement of […] 1-anilinonaphthalene 8-sulfonic acid from IFABP expressed in Escherichia coli BL21 (DE3) by fluorescence spectrophotometry
T4 sequence (P12104 whole entry): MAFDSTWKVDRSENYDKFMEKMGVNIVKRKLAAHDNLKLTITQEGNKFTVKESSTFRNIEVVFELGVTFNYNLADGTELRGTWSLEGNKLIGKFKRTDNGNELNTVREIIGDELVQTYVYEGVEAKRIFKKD

[12] = biological target: T2, Peroxisome proliferator-activated receptor gamma (Mus musculus); assay: Binding affinity to PPARgamma in C57BL/6J mouse macrophages assessed as increase in CD36 mRNA level at 500 nM after 48 hrs by real-time PCR analysis
[13] = biological target: Fatty acid-binding protein, heart (Homo sapiens, UniProt P05413); assay: Displacement of […] 1-anilinonaphthalene 8-sulfonic acid from HFABP expressed in Escherichia coli BL21 (DE3) by fluorescence spectrophotometry
[14] = biological target: T1, Fatty acid-binding protein, adipocyte; assay: Binding affinity to AFABP in […] C8PA cells assessed as blocked of protein interaction with hormone sensitive lipase at 10 uM after 2 to 4 hrs by FRET analysis; format: cell-based
Target sequence in this assay (P15090 2-132 limits assumed): as the sequence (P15090 2-132 limits assumed) above

[15] = biological target: T5, Fatty acid-binding protein, liver (Homo sapiens, UniProt P07148); assay: Displacement of […] 1-anilinonaphthalene 8-sulfonic acid from LFABP expressed in Escherichia coli BL21 (DE3) by fluorescence spectrophotometry
T5 sequence (P07148 whole entry): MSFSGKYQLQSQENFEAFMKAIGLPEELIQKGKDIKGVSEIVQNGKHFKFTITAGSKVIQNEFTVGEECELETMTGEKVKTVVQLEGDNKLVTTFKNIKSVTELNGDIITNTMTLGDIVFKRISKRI

[16] = biological target: T2, Peroxisome proliferator-activated receptor gamma (Mus musculus); assay: Binding affinity to PPARgamma in C57BL/6J mouse macrophages assessed as increase in Cpt1alpha mRNA level at 5 uM after 48 hrs by real-time PCR analysis
[17] = biological target: T2, Peroxisome proliferator-activated receptor gamma (Mus musculus); assay: Binding affinity to PPARgamma in C57BL/6J mouse macrophages assessed as increase in CD36 mRNA level at 5 uM after 48 hrs by real-time PCR analysis

Sequence of Fatty acid-binding protein, heart (P05413 whole entry): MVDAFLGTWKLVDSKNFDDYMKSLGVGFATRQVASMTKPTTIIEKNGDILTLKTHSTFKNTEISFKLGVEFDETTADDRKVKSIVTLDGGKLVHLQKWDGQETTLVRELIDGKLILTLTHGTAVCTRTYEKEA
Sequence of Fatty acid-binding protein 5 (Q01469 whole entry): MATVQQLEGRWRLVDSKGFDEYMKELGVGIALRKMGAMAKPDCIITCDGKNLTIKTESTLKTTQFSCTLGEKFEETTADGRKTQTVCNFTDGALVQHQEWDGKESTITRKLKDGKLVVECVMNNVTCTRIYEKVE

| Structure (SMILES) | Activity (Macrophage [1]) | pKi [2] | Activity [3] | Activity [4] | Activity (Macrophage [5]) | Activity [6] | Activity [7] | pKi [8] | Activity [9] | Activity (Macrophage [10]) | pKi [11] | Activity [12] | pKi [13] | Activity [14] | pKi [15] | Activity [16] | Activity [17] |
| --- | --- | --- | --- | --- | --- | --- | --- | --- | --- | --- | --- | --- | --- | --- | --- | --- | --- |
| COC(=O)c1sc(-c2cccs2)cc1NC(=O)/C=C/C(=O)O | Active | 6.17 | inactive | Active | Active | inactive | Active | 5.47 | inactive | Active | 5.18 | inactive | 5.04 | Active | 5.09 | – | – |
| CCCCC/C=C/C=C1/C(=O)C=C[C@@H]1C/C=C\CCCC(=O)O | – | – | – | – | – | – | – | – | – | – | – | – | – | – | – | Active | Active |

Source: ChEMBL document CHEMBL1154280, “Identification and characterization of a small molecule inhibitor of Fatty Acid binding proteins” (J Med Chem, 2009)
